The record followed here is PMC6150378, “Chemical Constituents from the Flower of Hosta plantaginea with Cyclooxygenases Inhibition and Antioxidant Activities and Their Chemotaxonomic Significance” (Molecules : A Journal of Synthetic Chemistry and Natural …, 2017).

SMILES strings stand for the structures.

Assay [1] can be described thus: Antioxidant assay: DPPH radical-scavenging activity. Particulars: DPPH method; regression using five concentrations (500, 200, 100, 50, 25 μM); 517 nm, 40 min at 30 °C. The procedure: DPPH radical-scavenging activity of the sample was measured as previously described with minor modifications. In a 96-well microplate, 150 μL of DPPH solution (200 μM) was added to 50 μL of the test sample in methanol at different concentrations. The OD values of the reaction mixtures was recorded at 517 nm using a Multiskan Go (Thermo Fisher Scientific, Inc., Waltham, MA, USA) for 40 min at 30 °C. The DPPH radical scavenging activity was calculated by the following equation: DPPH scavenging activity % = […], where Asample represents the absorbance of sample and DPPH, Ablank represents the absorbance of sample and CH3OH, Acontrol represents the absorbance of DPPH and CH3OH. […] L-ascorbic acid was used as the positive control in this experiment. All tests were run in triplicate, and values obtained from experiments were averaged.

Assay [2] has as its target T1, ovine COX-1 (Ovis aries, UniProt P05979).
T1 sequence (P05979 25-600): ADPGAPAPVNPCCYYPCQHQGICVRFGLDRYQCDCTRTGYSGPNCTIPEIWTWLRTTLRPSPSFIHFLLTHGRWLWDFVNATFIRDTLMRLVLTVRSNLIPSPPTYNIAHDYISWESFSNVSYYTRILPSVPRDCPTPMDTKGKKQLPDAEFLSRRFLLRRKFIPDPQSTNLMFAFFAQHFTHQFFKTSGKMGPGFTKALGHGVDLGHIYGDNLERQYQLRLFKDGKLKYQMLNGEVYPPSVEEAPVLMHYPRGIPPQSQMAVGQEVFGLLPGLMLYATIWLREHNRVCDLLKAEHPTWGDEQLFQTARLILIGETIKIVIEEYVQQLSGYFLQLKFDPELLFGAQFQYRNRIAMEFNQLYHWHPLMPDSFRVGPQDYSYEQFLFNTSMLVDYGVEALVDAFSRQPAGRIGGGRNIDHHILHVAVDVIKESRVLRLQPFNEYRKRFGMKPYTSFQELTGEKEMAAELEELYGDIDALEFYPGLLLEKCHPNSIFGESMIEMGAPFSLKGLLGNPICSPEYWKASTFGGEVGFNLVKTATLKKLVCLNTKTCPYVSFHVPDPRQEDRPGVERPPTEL
Description: (§1) 2,2-Di-phenyl-1-picrylhydrazyl (DPPH) (Sigma Corporation, Ronkonkoma, New York, NY, USA), L-cysteine methyl ester and o-tolyl isothiocyanate (Meilun Biotech. Co. Ltd., Dalian, China), D-glucose, and L-glucose (Energy Chemical, Shanghai, China) were used. COX inhibitor screening assay kit was purchased from Cayman Chemical Company (Ann Arbor, MI, USA).

For assay [3], the target named is T2, ovine COX-2 (Ovis aries, UniProt P79208).
T2 sequence (P79208 17-603): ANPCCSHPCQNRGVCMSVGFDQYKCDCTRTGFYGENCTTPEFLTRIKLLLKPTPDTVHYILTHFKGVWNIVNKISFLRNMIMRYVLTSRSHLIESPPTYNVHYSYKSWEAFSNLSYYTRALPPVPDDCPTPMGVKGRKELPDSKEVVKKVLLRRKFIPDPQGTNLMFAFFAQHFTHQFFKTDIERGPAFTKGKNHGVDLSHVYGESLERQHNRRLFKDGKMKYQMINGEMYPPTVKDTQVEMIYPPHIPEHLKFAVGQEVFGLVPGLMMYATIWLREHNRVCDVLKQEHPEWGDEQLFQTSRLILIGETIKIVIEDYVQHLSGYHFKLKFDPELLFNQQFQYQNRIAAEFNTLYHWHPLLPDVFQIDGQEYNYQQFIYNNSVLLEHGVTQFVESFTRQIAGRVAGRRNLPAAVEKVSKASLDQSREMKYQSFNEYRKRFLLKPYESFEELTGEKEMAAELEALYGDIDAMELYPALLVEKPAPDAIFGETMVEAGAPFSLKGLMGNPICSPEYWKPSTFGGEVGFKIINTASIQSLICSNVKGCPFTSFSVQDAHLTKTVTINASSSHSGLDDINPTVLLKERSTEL
Description: as §1

For `C[C@@H]1O[C@@H](OC[C@H]2O[C@@H](OCCc3ccccc3)[C@H](O)[C@@H](O)[C@@H]2O)[C@H](O)[C@H](O)[C@H]1O` [Compound 6, phenethyl-O-rutinoside], the results for the half-maximal inhibitory concentration (IC50) in assay [1], in assay [2] and in assay [3] were 275 ± 14.8 µM, 41.2 ± 1.5 µM and 35.4 ± 1.6 µM, respectively.

On to `COc1cc(O[C@@H]2O[C@H](CO)[C@@H](O)[C@H](O)[C@H]2O)cc2c1C(=O)C[C@@H](c1ccc(O)cc1)O2` [Compound 1, hostaflavanone A], for which the IC50 is 83.2 ± 3 µM in assay [1], 21.6 ± 1.2 µM in assay [2] and 45.4 ± 3.3 µM in assay [3].

In assay [1], `O=C1O[C@H]([C@@H](O)CO)C(O)=C1O` [L-ascorbic acid, reference compound] came in with an IC50 of 33.9 ± 1.1 µM.

For `OC[C@H]1O[C@@H](OCCc2ccccc2)[C@H](O)[C@@H](O)[C@@H]1O` [Compound 4, phenethyl-O-β-D-glucopyranoside], the half-inhibitory concentration (IC50) stood at 282 ± 5.2 µM in assay [1], 15.5 ± 0.6 µM in assay [2] and 38.2 ± 3.9 µM in assay [3].

Turning to `OC[C@H]1O[C@@H](OC[C@H]2O[C@@H](OCCc3ccccc3)[C@H](O)[C@@H](O)[C@@H]2O)[C@H](O)[C@@H](O)[C@@H]1O` [Compound 5, phenethanol-β-D-gentiobioside], the IC50 in assay [1] was 257 ± 13.8 µM; in assay [2], 38.4 ± 1.3 µM; in assay [3] it was 31.7 ± 2.9 µM.

A word on the IC50: it is the concentration that inhibits the measured activity by half. A low value points to higher potency.
